What was measured:
Assay type in all cases: cell-based, mouse
[1] = test system: Raw 264.7 cells; assay: Inhibition of p-CREB with KG501, IL-1ra ELISA in Raw 264.7 cells; conditions: KG501 2, 5, 10 μM pretreatment 45 min, then hUMSCs-CM with LPS 200 ng/ml
Protocol: Raw 264.7 cells (2×10^5) were seeded onto the plate, and incubated for 24 hrs. The cells were pretreated with a serum-free medium containing KG501 (2 μM, 5 μM, and 10 μM, Sigma-Aldrich, MO) for 45 min. The supernatant was then removed from the dish, and the cells were treated with hUMSCs-CM in the presence of LPS (200 ng/ml). The supernatant was used for IL-1ra ELISA analysis. Independent experiments were triplicated on different days.
(§1) IL-1β and IL-1ra levels were measured in supernatants of Raw 264.7 cells using commercially available ELISA kits (IL-1β Quantikine ELISA and IL-1 ra Quantikine ELISA kits, R&D Systems, MN).

[2] = test system: Raw 264.7 cells; assay: IL-1β and IL-1ra ELISA in supernatants of Raw 264.7 cells; conditions: LPS alone
Protocol: A mouse macrophage cell line (Raw 264.7 cell, ATCC, VA) was cultured according to the manufacturer's instructions. The raw 264.7 cells were treated with either LPS (100 ng/ml, Sigma-Aldrich, MO) or LPS together with hUMSCs-CM for 24 hrs, and the supernatants were isolated from each treated group.
as §1

[3] = test system: Raw 264.7 cells; assay: Knockdown of CREB by siRNA in Raw 264.7 cells
Protocol: After Raw 264.7 cells (2×10^5) were plated in 6-well plates, transfection with 100 nM of CREB siRNA (siCREB) and control (siCtr) was performed for 48 hrs using Lipofectamine 3000 reagent (Invitrogen, MA) according to the manufacturer's instructions. The siCREB (sense: 5′-[…]-3″, antisense: 5′-[…]-3″) and siCtr (sense: 5-ACGUGACACGUUCGGAGAA-3′, antisense: 5′-UUCUCCGAACGUGUCACGU-3″) were purchased from Genolution Pharmaceuticals, Inc. After transfection, the RNA and proteins were isolated and used for PCR and western blotting, respectively.

For `O=C(Nc1ccc(Cl)cc1)c1cc2ccccc2cc1OP(=O)(O)O` [KG501], the “increase of IL-1ra expression by hUMSCs-CM treatment” value [1] was “inhibited in a CREB inhibitor dose-dependent manner”.

For lipopolysaccharide [LPS], the “IL-1ra level in Raw 264.7 cells” value [2] was “strongly elevated” and the “IL-1β level in Raw 264.7 cells” value [2] was “strongly elevated”.

“siCREB: CREB siRNA, sense 5′-CCACAAAUCAGAUUAAUUUUU-3″, antisense 5′-AAAUUAAUCUGAUUUGUGGUU-3″ (chemistry not given here)” was tested, and the “enhanced expression of IL1RN induced by hUMSCs-CM” value ([3]; LPS-stimulated Raw 264.7 cells, knockdown of CREB) was “reduced” and the “expression of IL-1ra protein in Raw 264.7 cells” value ([3]; transfection with 100 nM siCREB, 48 hrs) was “reduced”.

Reference: patent US20200129592A1, “COMPOSITION FOR TREATING STROKE AND METHOD FOR SCREENING THE SAME” (CHA University Industry-Academic Cooperation Foundation, priority 2018, published 2020)
